The values below come from ChEMBL document CHEMBL1201861, “Genomics of Drug Sensitity in Cancer screening data, Wellcome Trust Sanger Institute”.

As a reminder, the IC50 is the point on the concentration scale where inhibition reaches its midpoint. A high value points to a need for much substance.

What all share (assay): cells
Assay type in all cases: functional, cell-based, Homo sapiens

One assay has as its system BHT-101. Particulars: Homo sapiens, BHT-101.
The subject of another assay is GR-ST. Particulars: Homo sapiens, GR-ST.
A further assay has as its system K562. To be noted: Homo sapiens, K562.
A further assay concerns SNU-C2B. To be noted: Homo sapiens, SNU-C2B.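 Further: cell viability readout used to measure compound-driven suppression of SNU-C2B cell proliferation, IC50 marking half-maximal growth inhibition.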
A further assay deals with C8166. To be noted: Homo sapiens, C8166.
For another assay, the system named is D-336MG. To be noted: Homo sapiens, D-336MG.
The subject of the next assay is VMRC-RCZ. To be noted: Homo sapiens, VMRC-RCZ.
A further assay has as its system KLE. To be noted: Homo sapiens, KLE.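 Further: growth inhibition of human KLE cells, read out with a cell viability assay.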
The next assay has as its system HCC1937. Particulars: Homo sapiens, HCC1937.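 Further: growth inhibition measured with a cell viability read-out.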
The next assay relates to LXF-289 cell line. Particulars: Homo sapiens, LXF-289.
The test system of the next assay is LU-139. To be noted: Homo sapiens, LU-139.
The test system of the next assay is A388. Particulars: Homo sapiens, A388.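 Further: growth inhibition of human A388 cells, read out with a cell viability assay.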
In another assay the test system is CAL-12T. Particulars: Homo sapiens, CAL-12T.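 Further: growth inhibition of human CAL-12T cells, read out with a cell viability assay.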
The test system of another assay is SW900. To be noted: Homo sapiens, SW900.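 Further: IC50 is the concentration that inhibits SW900 cell growth, measured by a cell viability assay.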
A further assay relates to KYSE-510. To be noted: Homo sapiens, KYSE-510.

Description for A388: SANGER: Inhibition of human A388 cell growth in a cell viability assay.
Description for BHT-101: SANGER: Inhibition of human BHT-101 cell growth in a cell viability assay.
Description for C8166: SANGER: Inhibition of human C8166 cell growth in a cell viability assay.
Description for CAL-12T: SANGER: Inhibition of human CAL-12T cell growth in a cell viability assay.
Description for D-336MG: SANGER: Inhibition of human D-336MG cell growth in a cell viability assay.
Description for GR-ST: SANGER: Inhibition of human GR-ST cell growth in a cell viability assay.
Description for HCC1937: SANGER: Inhibition of human HCC1937 cell growth in a cell viability assay.
Description for K562: SANGER: Inhibition of human K-562 cell growth in a cell viability assay.
Description for KLE: SANGER: Inhibition of human KLE cell growth in a cell viability assay.
Description for KYSE-510: SANGER: Inhibition of human KYSE-510 cell growth in a cell viability assay.
Description for LU-139: SANGER: Inhibition of human LU-139 cell growth in a cell viability assay.
Description for LXF-289 cell line: SANGER: Inhibition of human LXF-289 cell growth in a cell viability assay.
Description for SNU-C2B: SANGER: Inhibition of human SNU-C2B cell growth in a cell viability assay.
Description for SW900: SANGER: Inhibition of human SW900 cell growth in a cell viability assay.
Description for VMRC-RCZ: SANGER: Inhibition of human VMRC-RCZ cell growth in a cell viability assay.

As for `CCc1cncnc1N1CCN(Cc2nc3cc(C(F)(F)F)ccc3[nH]2)CC1`, it took 820 nM to reach half-maximal inhibition in the assay with BHT-101 (IC50).
In the case of `COc1cc2ncnc(Nc3ccc(F)c(Cl)c3)c2cc1OCCCN1CCOCC1` [GEFITINIB], the IC50 with GR-ST, with K562, in the assay with SNU-C2B, in the assay on C8166, with D-336MG and in the assay on VMRC-RCZ was greater than 500 nM each time. The IC50 in the assay on KLE, with HCC1937, with LXF-289 cell line, with LU-139, with A388 and with CAL-12T was greater than 500 nM each time. The 50% inhibitory concentration (IC50) in the assay on SW900 and in the assay with KYSE-510 was greater than 500 nM each time.
